From US11390922B2, “C-CBL mutations and uses thereof” (University of Chicago, priority 2010, dated 2022)
Entries after “also recorded” stand apart in the source; their conditions may differ.

How the values were obtained:
Met kinase = conditions: cited from earlier work
A549 cells = assay: Cell survival of c-CBL wild type and mutant transfectants after treatment with c-Met and EGFR inhibitors (cell counting); type: cell-based, Human; conditions: for sensitivity (cell survival) of c-CBL mutant versus wild type c-CBL transfected cells: A549 cells transiently transfected with c-CBL WT or mutants SH, Q, V, W*, different concentrations, 48 h treatment
Procedure: A549 and H226 cells were transiently transfected with empty vector (EV) or c-CBL wild type (WT) and mutants' constructs (SH: S80N/H94Y, Q: Q249E, V: V391I, W*: W802*). At 24 h, cells were recollected and seeded 5×10^4 cells/well in 24 well culture plate. Another 24 h, cells were treated with c-Met inhibitor SU11274 and EGFR inhibitor Tarceva in different concentrations. Cell survival was detected by cell counting after 48 h treatment.

H358 NSCLC cells = assay: MTT assay of live cells after drug treatment of H358 cells with c-CBL knockdown; type: cell-based; conditions: H358 clone 27 cells, 72 h after drug treatment
Procedure: H358 clone 27 cells expressing high levels of c-CBL were knocked down using a lentiviral construct (sh 27). Cells were treated with the indicated RTK inhibitors, PI-3K inhibitors or cisplatin (CDDP). Live cells were assessed 72 h after drug treatment using a MTT assay.
The effects of silencing wt c-CBL in combination with a variety of drugs that inhibit EGFR (erlotinib [Tarceva]), PI-3K (NVP, Wortmanin), MET (SU11274) on the growth of H358 NSCLC cells that endogenously express c-CBL-Wt were investigated. The H358 cells, which expressed high levels of c-CBL, were knocked down using a lentiviral construct (sh 27, directed against c-CBL-Wt in H358 clone 27 cells (black), or the sh SCR scrambled RNA control (white)). Cells were treated with RTK and P1-3K inhibitors, cisplatin (CDDP). Live cells were assessed 72 hours after drug treatment using an MTT assay.

EGFR = conditions: refractory advanced NSCLC; cited from earlier work

SMILES: Cc1[nH]c(/C=C2\C(=O)Nc3ccc(S(=O)(=O)N(C)c4cccc(Cl)c4)cc32)c(C)c1C(=O)N1CCN(C)CC1 [SU11274]
- cell growth, cell cycle and apoptosis (Met kinase): time- and dose-dependent reduced cell growth and induced G1 cell cycle arrest and apoptosis
- Met kinase autophosphorylation (Met kinase; sites important for PI3K and Ras pathway activation): reduced
- sensitivity of A549 cells containing c-CBL mutants versus wild type c-CBL (A549 cells; 1 μM SU11274, mutants S80N/H94Y, Q249E, V391I, W802* (FIG. 23)): c-CBL mutants are more sensitive than wild type c-CBL
- sensitivity (cell survival) of c-CBL mutant versus wild type c-CBL transfected cells (A549 cells): had more sensitivity to the c-Met inhibitor SU11274; also recorded: c-CBL mutants had more sensitivity to c-Met inhibitor SU11274 than wild type c-CBL
- live cells: c-CBL-Wt knockdown (sh 27) versus scrambled shRNA control (H358 NSCLC cells): silencing c-CBL-Wt significantly reduced the ability of SU11274 (also referred to as SU) to kill NSCLC cells

SMILES: C#Cc1cccc(Nc2ncnc3cc(OCCOC)c(OCCOC)cc23)c1 [Tarceva, erlotinib]
- sensitivity (cell survival) of c-CBL mutant versus wild type c-CBL transfected cells (A549 cells): no difference; also recorded: no differential effects
- response to EGFR blockade (EGFR): 5-15%
